Non-standard residues stand in square brackets, D forms with d. Residues, ends and D or L forms follow the SMILES beside them. Groups on a side chain read outwards from the residue. Lys(thiomyristoyl) = CCCCCCCCCCCCCC(=S)NCCCC[C@H](N)C(=O)O; Tyr(3-NO2) = N[C@@H](Cc1ccc(O)c([N+](=O)[O-])c1)C(=O)O; Aun = NCCCCCCCCCCC(=O)O; 2Abz = Nc1ccccc1C(=O)O
Key:
Format in all cases: biochemical
[1] = biological target: T1, Sirt2 (Homo sapiens, UniProt Q8IXJ6); test: Ki determination with substrate 3, 96-well MTP fluorescence reader; details: Sirt2 0.01 µM; varying substrate 3, 500 µM NAD+; read-out: Ki (3)
T1 construct: made in house
T1 sequence (Q8IXJ6 1-389): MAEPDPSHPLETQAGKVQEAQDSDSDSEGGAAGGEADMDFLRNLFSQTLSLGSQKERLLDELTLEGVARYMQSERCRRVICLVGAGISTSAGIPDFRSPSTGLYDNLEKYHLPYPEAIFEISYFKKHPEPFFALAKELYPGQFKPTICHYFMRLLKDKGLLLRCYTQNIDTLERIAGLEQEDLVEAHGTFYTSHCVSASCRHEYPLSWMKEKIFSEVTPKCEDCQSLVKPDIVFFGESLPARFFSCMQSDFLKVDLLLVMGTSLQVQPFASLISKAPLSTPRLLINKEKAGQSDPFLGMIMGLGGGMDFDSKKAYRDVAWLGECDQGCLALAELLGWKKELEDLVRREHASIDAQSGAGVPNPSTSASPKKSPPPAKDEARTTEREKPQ
Protocol: The microtiter plate fluorescence measurements were performed on a Tecan Infinite M200 microplate reader (Maennedorf, Switzerland) at λEx = 320 nm and λEm = 408 nm (lag time 9 μs, integration time […], gain 160, 170 or 182). The reactions (total volume 100 μl) were measured in black low-binding 96-well microtiter plates (NUNC). Assay-buffer, 500 μM NAD^+ and 0.07–200 μM peptide substrate were pre-incubated at 37 °C for 5 min. The reaction was started by adding human sirtuin (0.01–0.5 μM). The signals were converted into product concentration via calibration lines and the resulting data were evaluated as described above (single fluorescence measurement). The determination for the kinetic constants of NAD^+ was performed in the same way, except that the peptide concentration was fixed (5, 25 or 200 μM) and the NAD^+ concentration was varied (10–1500 μM). All measurements were done in duplicates. The reaction mixture for the calibration lines was prepared as described for the single fluorescence measurements. […] The resulting plots were analyzed by a competitive inhibition and non-competitive inhibition model using the program Sigma Plot 8. The linear regression of the apparent KM-values against the corresponding inhibitor concentration yielded the inhibitor constant Ki for competitive inhibition. The Ki for non-competitive inhibition was determined by linear regression of 1/apparent Vmax against the corresponding inhibitor concentration. The negative Ki value can be determined as intersection with the X-axis from these plots.
Supplementary Figure S15. Kinetic characteristics for sirtuin inhibitor 8. The reactions were performed with 0.01 µM Sirt2 /0.1 µM Sirt3 /0.5 µM Sirt6 and 500 µM NAD^+ and varying concentrations of 3 (0.07-100 µM). […] The negative Ki value can be determined as intersection with the X-axis from the Vmax^app-1/I plot.
Supplementary Figure S16. […] The negative Ki value can be determined as intersection with the X-axis from the Vmax^app-1/I plot.
Supplementary Figure S17. […] The negative Ki value can be determined as intersection with the X-axis from the Vmax^app-1/I plot.

[2] = biological target: T2, Sirt3 (Homo sapiens, UniProt Q9NTG7); test: as above; details: Sirt3 0.1 µM; varying substrate 3, 500 µM NAD+ (saturating)
T2 construct: made in house
T2 sequence (Q9NTG7 1-399): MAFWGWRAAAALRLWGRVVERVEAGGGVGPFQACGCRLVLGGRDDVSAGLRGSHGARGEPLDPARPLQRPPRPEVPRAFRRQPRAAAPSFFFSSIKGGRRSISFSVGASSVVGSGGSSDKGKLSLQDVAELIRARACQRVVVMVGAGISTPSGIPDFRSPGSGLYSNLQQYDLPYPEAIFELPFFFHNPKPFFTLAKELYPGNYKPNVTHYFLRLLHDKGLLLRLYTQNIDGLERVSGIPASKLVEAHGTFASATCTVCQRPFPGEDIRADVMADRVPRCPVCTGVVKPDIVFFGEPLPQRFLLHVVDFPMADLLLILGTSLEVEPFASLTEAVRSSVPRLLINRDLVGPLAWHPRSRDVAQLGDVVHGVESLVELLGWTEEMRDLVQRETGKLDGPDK
Protocol: (§1) All measurements were done in duplicates.
(§2) Supplementary Figure S13. […] Data are presented as mean ± s.d. (n=2) and lines represent the Michaelis-Menten-plot (left) and secondary plots (right). The apparent KM or Vmax^app-1 values from v/[S] characteristics were plotted against the corresponding inhibitor concentration.
(§3) Supplementary Figure S15. Kinetic characteristics for sirtuin inhibitor 8. The reactions were performed with 0.01 µM Sirt2 /0.1 µM Sirt3 /0.5 µM Sirt6 and 500 µM NAD^+ and varying concentrations of 3 (0.07-100 µM). […] Data are presented as mean ± s.d. (n=2) and lines represent the Michaelis-Menten-plot (left) and secondary plots (right). The apparent Vmax^app-1 values from v/[S] characteristics were plotted against the corresponding inhibitor concentration.

[3] = biological target: T3, Sirt6 (Homo sapiens, UniProt Q8N6T7); test: Isomer specific inhibition by thioxo peptides, HPLC; details: substrate 2a, 30 min, 20 °C
T3 construct: His-tag; made in house; host or cells: E. coli BL21 DE3
Protocol: After 30 min incubation at 20 °C reaction was stopped using 10% TFA solution. Inhibitor solutions were irradiated at 254 nm for 5 min. Separated isomers were applied in concentrations from 1 to 10 μM. The influence of cis content on sirtuin inhibition using fluorescence spectrometer was determined with 500 μM NAD^+, 5 μM 3, 0.1 μM Sirt2 and 0.1 μM 9. Reactions were done at 20 °C with 9 in GS and PSS (after 5 min irradiation at 254 nm). 9 in PSS was applied immediately after irradiation (transfer time ~5 s) and started directly by adding sirtuin. Reactions were measured within 1 min to avoid re-isomerization.
Supplementary Figure S36. Determination of IC50 value of 8 for Sirt6 in GS (?) and PSS (π). Data were fitted with U(%) = Umin(%) + (Umax(%) – Umin(%))/(1+10^(x-logIC50)) with U(%) percental turmover of substrate 2a; Umin(%) lowest turnover of substrate; Umax(%) maximal turnover of substrate (n=3).
Supplementary Figure S37. Inhibition of Sirt6 by 8 (?) and 9 (π).Data were fitted with U(%) = Umin(%) + (Umax(%) – Umin(%))/(1+10^(x-logIC50)) with U(%) percental turmover of substrate; Umin(%) lowest turnover of substrate 2a; Umax(%) maximal turnover of substrate (n=3).
Supplementary Figure S38. Determination of IC50 of 9 for Sirt6 with 72.4 % cis- (π) and 70.3 % (?) trans-content. Measurements were done with 10 µM peptide substrate (big figure) or 30 µM (small figure). Data were fitted with U(%) = Umin(%) + (Umax(%) – Umin(%))/(1+10^(x-logIC50)) with U(%) percental turmover of substrate 2a; Umin(%) lowest turnover of substrate; Umax(%) maximal turnover of substrate (n=3).

[4] = biological target: T3, Sirt6; test: Ki determination with substrate 3, 96-well MTP fluorescence reader; details: Sirt6 0.5 µM; varying substrate 3, 500 µM NAD+ (saturating)
Protocol: as §1, §2
Supplementary Figure S14. […] The reactions were performed with 0.5 µM Sirt6 and either 500 µM NAD^+ and varying concentrations of 3 (2-100 µM). […] Data are presented as mean ± s.d. (n=2) and lines represent the Michaelis-Menten-plot (left) and secondary plots (right). The apparent Vmax^app-1 values from v/[S] characteristics were plotted against the corresponding inhibitor concentration.
as §3

[5] = biological target: T4, Sirt4 (Homo sapiens, UniProt Q9Y6E7); test: Continuous fluorescence assay, substrate kinetics; details: Sirt4 1000 nM; fluorescence spectrophotometer (footnote a)
T4 construct: made in house; host or cells: E. coli BL21 (DE3)
T4 sequence (Q9Y6E7 29-314): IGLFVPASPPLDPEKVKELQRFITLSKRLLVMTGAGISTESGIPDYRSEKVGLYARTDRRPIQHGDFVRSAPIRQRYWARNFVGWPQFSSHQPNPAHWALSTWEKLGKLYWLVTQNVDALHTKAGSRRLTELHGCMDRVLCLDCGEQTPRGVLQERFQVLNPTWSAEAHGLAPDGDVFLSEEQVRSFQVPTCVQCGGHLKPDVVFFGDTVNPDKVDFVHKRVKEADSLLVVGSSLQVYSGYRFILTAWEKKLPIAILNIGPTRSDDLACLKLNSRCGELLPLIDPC
Protocol: The fluorescence measurements were performed on a Hitachi F-4500 fluorescence spectrophotometer (Tokyo, Japan) at λEx = 310 nm and λEm = 405 nm (slitEx = 5 nm, slitEm = 2.5 nm, PMT = 700 V for 3, 4 and 5 as well as slitEx = 10 nm, slitEm = 10 nm, PMT = 950 V for 4a). Each reaction mixture contained assay-buffer, 0.5 mM NAD^+ and various peptide concentrations (0.1–100 μM) and was preincubated for 5 minutes at 37 °C. […] Product formation could be monitored by increase of relative fluorescence. This signal was converted into product concentration via calibration lines. The slope of the linear regression of product formation against time yielded the reaction velocity rates in μM/s. […] The reaction mixture was analyzed with HPLC, to control if the entire peptide substrate was turned to product. Additionally the mixture was diluted (0.1–25 μM) and measured with Hitachi F-4500 fluorescence spectrophotometer at the same conditions as described above.
(§4) The microtiter plate fluorescence measurements were performed on a Tecan Infinite M200 microplate reader (Maennedorf, Switzerland) at λEx = 320 nm and λEm = 408 nm (lag time 9 μs, integration time […], gain 160, 170 or 182). The reactions (total volume 100 μl) were measured in black low-binding 96-well microtiter plates (NUNC). […] The reaction mixture for the calibration lines was prepared as described for the single fluorescence measurements. […]

[6] = biological target: T2, Sirt3; test: Continuous fluorescence assay, substrate kinetics; details: Sirt3 100 nM; fluorescence spectrophotometer (footnote a)
Protocol: (§5) The fluorescence measurements were performed on a Hitachi F-4500 fluorescence spectrophotometer (Tokyo, Japan) at λEx = 310 nm and λEm = 405 nm (slitEx = 5 nm, slitEm = 2.5 nm, PMT = 700 V for 3, 4 and 5 as well as slitEx = 10 nm, slitEm = 10 nm, PMT = 950 V for 4a). Each reaction mixture contained assay-buffer, 0.5 mM NAD^+ and various peptide concentrations (0.1–100 μM) and was preincubated for 5 minutes at 37 °C. The reaction was started by adding human sirtuin (0.1–0.5 μM) and observed for 5–10 minutes. Product formation could be monitored by increase of relative fluorescence. This signal was converted into product concentration via calibration lines. […] The reaction mixture was analyzed with HPLC, to control if the entire peptide substrate was turned to product. Additionally the mixture was diluted (0.1–25 μM) and measured with Hitachi F-4500 fluorescence spectrophotometer at the same conditions as described above.
as §4

[7] = biological target: T5, Sirt5 (Homo sapiens, UniProt Q9NXA8); test: Continuous fluorescence assay, substrate kinetics; details: Sirt5 500 nM; MTP fluorescence reader (footnote b)
T5 construct: made in house
T5 sequence (Q9NXA8 37-310): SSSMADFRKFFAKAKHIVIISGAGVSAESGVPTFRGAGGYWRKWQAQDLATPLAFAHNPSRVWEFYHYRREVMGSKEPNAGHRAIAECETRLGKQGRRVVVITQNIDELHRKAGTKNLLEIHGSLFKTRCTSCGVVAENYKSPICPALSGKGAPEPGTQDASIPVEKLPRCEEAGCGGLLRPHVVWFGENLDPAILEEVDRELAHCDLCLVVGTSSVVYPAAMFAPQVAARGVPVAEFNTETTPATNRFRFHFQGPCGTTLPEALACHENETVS
Protocol: as §5, §4

T3 sequence (Q8N6T7 whole entry): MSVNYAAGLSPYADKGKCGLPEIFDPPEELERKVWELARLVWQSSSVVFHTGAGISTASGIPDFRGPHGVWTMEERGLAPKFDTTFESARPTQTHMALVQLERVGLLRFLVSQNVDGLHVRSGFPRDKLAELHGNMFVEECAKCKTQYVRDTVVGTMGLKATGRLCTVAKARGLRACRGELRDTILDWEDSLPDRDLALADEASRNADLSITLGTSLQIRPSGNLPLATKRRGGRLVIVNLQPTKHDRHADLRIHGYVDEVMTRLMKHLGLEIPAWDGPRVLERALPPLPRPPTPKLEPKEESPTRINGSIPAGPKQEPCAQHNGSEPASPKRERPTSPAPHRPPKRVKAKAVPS

Ki [1] [nM] | Ki [2] [nM] | IC50 ([3]; inhibitor with 2.5% cis isomer (ground state)) [nM] | IC50 ([3]; inhibitor with 25% cis isomer (photo-excited state)) [nM] | Ki [4] [nM] | Compound | Km [5] [µM] | Km [6] [µM] | Km [7] [µM]
80 ± 20 | 100 ± 20 | 1060 ± 120 | 1870 ± 180 | 400 ± 100 | CCCCCCCCCCCCCC(=S)NCCCC[C@H](NC(=O)[C@H](CCCCN)NC(=O)[C@@H]1CCCN1C(=O)[C@H](CC(C)C)NC(=O)[C@H](C)NC(=O)[C@H](CCC(=O)O)NC(C)=O)C(=O)N[C@H](C(=O)NCC(=O)NCC(N)=O)[C@@H](C)O [peptide 8] (Ac-EALPK[Lys(thiomyristoyl)]TGG-NH2) | – | – | –
– | – | – | – | – | CC(=O)N[C@@H](CCC(=O)O)C(=O)N[C@@H](C)C(=O)N[C@@H](CC(C)C)C(=O)N1CCC[C@H]1C(=O)N[C@@H](CCCCN)C(=O)N[C@@H](CCCCNC(=O)CCCCCCCCCCNC(=O)c1ccccc1N)C(=O)N[C@@H](Cc1ccc(O)c([N+](=O)[O-])c1)C(=O)NCC(=O)NCC(N)=O [peptide 3] (Ac-EALPKK([Aun-2Abz])[Tyr(3-NO2)]GG-NH2) | 49.5 ± 7.5 | 3.3 ± 0.4 | 46.1 ± 7.2

— PMC4778124, “A continuous sirtuin activity assay without any coupling to enzymatic or chemical reactions” (Scientific Reports, 2016)
